Test results published in patent US20130053381A1, “2,4-DIOXO-1,4-DIHYDRO-2H-QUINAZOLIN-3-YL-SULFONAMIDE DERIVATIVES” (NOVARTIS AG, priority 2010, published 2013).

tested on: OF1 mice; assay: Maximal electroshock test (MES Test); type: in vivo; conditions: Mus musculus, po; 50 mg/kg, p.o., pre-treatment time −1 h; read-out: %-Protection
In short: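 Compound given p.o. (typically 50 mg/kg) 1 h before tonic-clonic convulsions were induced via temporal electrodes (50 Hz, 18 mA, 0.2 s); seizure lasting 3 s or less counted as protection. Read-out is percent protected of five mice per condition; ED50 calculated, blood exposure sampled after shock.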

| Structure (SMILES) | responders at 50 mg/kg [%] |
| --- | --- |
| CCC(OC)c1cc2c(=O)n(N(C(=O)OC(C)C)S(C)(=O)=O)c(=O)[nH]c2cc1C(F)(F)F (stereo not drawn) [Example 11.14, Methanesulfonyl-[6-(1-methoxy-propyl)-2,4-dioxo-7-trifluoromethyl-1,4-dihydro-2H-quinazolin-3-yl]-carbamic acid isopropyl ester] | 60 |
| CCCCC(=O)N(n1c(=O)[nH]c2cc(C(F)(F)F)c(C(CC)OC)cc2c1=O)S(C)(=O)=O (stereo not drawn) [Example 11.15, N-[6-(1-methoxy-propyl)-2,4-dioxo-7-trifluoromethyl-1,4-dihydro-2H-quinazolin-3-yl]-N-pentanoyl-methanesulfonamide] | 100 |
| CCCCCC(=O)N(n1c(=O)[nH]c2cc(C(F)(F)F)c(C(O)CC)cc2c1=O)S(C)(=O)=O (stereo not drawn) [Example 12.01, N-Hexanoyl-N-[6-(1-hydroxy-propyl)-2,4-dioxo-7-trifluoromethyl-1,4-dihydro-2H-quinazolin-3-yl]-methanesulfonamide] | 40 |
| CCC(O)c1cc2c(=O)n(N(C(=O)OCCOC)S(C)(=O)=O)c(=O)[nH]c2cc1C(F)(F)F (stereo not drawn) [Example 12.02, Methanesulfonyl-[6-(1-hydroxy-propyl)-2,4-dioxo-7-trifluoromethyl-1,4-dihydro-2H-quinazolin-3-yl]-carbamic acid 2-methoxy-ethyl ester] | 20 |
| CCCC(=O)N(n1c(=O)[nH]c2cc(C(F)(F)F)c(C(O)CC)cc2c1=O)S(C)(=O)=O (stereo not drawn) [Example 12.03, N-Butyryl-N-[6-(1-hydroxy-propyl)-2,4-dioxo-7-trifluoromethyl-1,4-dihydro-2H-quinazolin-3-yl]-methanesulfonamide] | 40 |
| CCC(O)c1cc2c(=O)n(N(C(=O)C(C)C)S(C)(=O)=O)c(=O)[nH]c2cc1C(F)(F)F (stereo not drawn) [Example 12.04, N-[6-(1-Hydroxy-propyl)-2,4-dioxo-7-trifluoromethyl-1,4-dihydro-2H-quinazolin-3-yl]-N-isobutyryl-methanesulfonamide] | 40 |
| CCCCC(=O)N(n1c(=O)[nH]c2cc(C(F)(F)F)c(C(O)CC)cc2c1=O)S(C)(=O)=O (stereo not drawn) [Example 12.05, N-[6-(1-Hydroxy-propyl)-2,4-dioxo-7-trifluoromethyl-1,4-dihydro-2H-quinazolin-3-yl]-N-pentanoyl-methanesulfonamide] | 40 |
| CCc1cc2[nH]c(=O)n(N(C(=O)OCC(C)C)S(C)(=O)=O)c(=O)c2cc1-c1ccnn1CC [Example 13.01, Methanesulfonyl-[7-ethyl-6-(2-ethyl-2H-pyrazol-3-yl)-2,4-dioxo-1,4-dihydro-2H-quinazolin-3-yl]carbamic acid isobutyl ester] | 20 |
| CCCCCC(=O)N(n1c(=O)[nH]c2cc(CC)c(-c3ccnn3CC)cc2c1=O)S(C)(=O)=O [Example 13.02, N-[7-Ethyl-6-(2-ethyl-2H-pyrazol-3-yl)-2,4-dioxo-1,4-dihydro-2H-quinazolin-3-yl]-N-hexanoyl-methanesulfonamide] | 20 |
| CCC(=O)N(n1c(=O)[nH]c2cc(CC)c(-c3ccnn3CC)cc2c1=O)S(C)(=O)=O [Example 13.03, N-[7-Ethyl-6-(2-ethyl-2H-pyrazol-3-yl)-2,4-dioxo-1,4-dihydro-2H-quinazolin-3-yl]-N-propionyl-methanesulfonamide] | 20 |
| CCn1nccc1-c1cc2c(=O)n(NS(C)(=O)=O)c(=O)[nH]c2cc1C(F)F [Example 14.0, N-[7-Difluoromethyl-6-(2-ethyl-2H-pyrazol-3-yl)-2,4-dioxo-1,4-dihydro-2H-quinazolin-3-yl]-methanesulfonamide] | 0 |
| CCn1nccc1-c1cc2c(=O)n(N(C(=O)COC(C)=O)S(C)(=O)=O)c(=O)[nH]c2cc1C(F)F [Example 14.01, Acetic acid 2-{[7-difluoromethyl-6-(2-ethyl-2H-pyrazol-3-yl)-2,4-dioxo-1,4-dihydro-2H-quinazolin-3-yl]-methanesulfonyl-amino}-2-oxo-ethyl ester] | 20 |
